Results taken from patent publication US20170280722A1, “COMPOSITIONS AND METHODS FOR CONTROL OF SAND FLIES AND OTHER BLOOD SUCKING INSECTS” (GENESIS LABORATORIES, INC., priority 2010, published 2017).

Tests used:
[1] = system: P. argentipes 1st instar larvae; test: Larval bioassay with feces of insecticide treated R. rattus (feed through); format: in vivo; conditions: for Mean ± SEM survival (days) of P. arg larvae post-exposure / P. argentipes larvae mortality (%): feces of R. rattus day-1 post treatment
Protocol: In the first study, a feed through study comparing diflubenzuron, fipronil, ivermectin, and eprinomectin was conducted on rats (Rattus rattus). Fecal samples were collected after three (3) consecutive days of administration of the trial products. The efficacy of the drugs administered during the blind study underwent testing in larval bioassays with P. argentipes 1st instar larvae. Commercially available chicken feed was mixed with the appropriate concentrations of each insecticide compound and used as is in the trial.
Twelve (12) locally purchased rats (Rattus rattus) of mixed sex were utilized in a small study testing the efficacy of four feed through insecticides. Five treatment groups of two rats each were randomly identified and fed diets consisting of locally available chicken feed treated with one of the following compounds: diflubenzuron (0.048%), fipronil (0.015%), ivermectin (0.025%), and eprinomectin (0.01% and 0.025%). Two rats served as control and were fed only chicken feed. Rats were fed 20 g of their assigned diet daily at the same time, with daily consumption and spillage calculated for a period of three (3) days. Sand fly analyses were conducted simultaneously.
[…] Collected feces were dried at approximately 40° C. in an oven then ground into a fine powder utilizing a pestle and mortar and frozen at −20° C. until larval bioassays were initiated.
Larval bioassay pots were prepared using 48 mm, 100 g round Dibbi jars. Dishes were prepared by burning several small holes into the bottom of the dish with a soldering iron and filling them with a small layer of plaster (¼ to ½ inch depth). Approximately 15-20 holes were punctured into the lids using 24 gauge needles. For simpler mortality counting, pots were quartered and each quadrant numbered using an ultra fine black Sharpie.
For each individual post-treatment bioassays, thirteen (13) dishes were loaded with 10 day old 1st instar P. argentipes larvae; twelve (12) pots were provided with approximately 0.005 g of the treated feces, with two sample pots per treated bandicoot rat, and one overall control sample fed only standard larval diet. See Table 1 for sample/treatment correlations. Larvae were loaded into bioassay pots and provided with their designated treatment sample. Mortality counts of larvae were conducted every 24 hours post-treatment until 100% mortality, or pupation, was reached.

[2] = cited from earlier work
[3] = Acceptance and tolerance of imidacloprid diet by sand rats; format: in vivo, Psammomys obesus
Source text: (§1) The test insecticide, imidacloprid at 250 ppm (0.025%) was incorporated into the feed together with orange, yellow, or green dye and fed to rats housed in standard laboratory caging. The treatment groups consisted of 6 males and 9 females; Controls: 3 males and 4 females with a body weight between 125-250 g.
(§2) DESIGN—Five sand rats were provided the reformulated diet for each of the treatment levels (50 ppm, 100 ppm, 250 ppm). Five sand rats were provided with control diets without imidacloprid. Two additional rats were provided with control diets containing green dye.
(§3) Feces were collected from the Alpha-Dri bedding for the last 5 days of the 7 day treatment period. Feces were weighed and transferred to a plastic bag labeled with the animal's cage identification number and stored frozen at −20° C.

P. papatasi larvae = test: Larval bioassay with feces of sand rats fed imidacloprid diet; format: in vivo
Protocol: A second trial was carried out using sand rats (Psammomys obesus) as the carrier of sand flies (P. papatasi) and imidacloprid as the insecticide. This rodent species was targeted since it serves as the source of blood meals for adult sand flies and its feces serves as a platform for larval development in Middle East ecosystems.
as §1, §2, §3
Bioassays of the larval groups comprised: four imidacloprid treatments (0, 50, 100, 250 ppm) (number of replicates per assay n=5), one control group (n=8), and one green dye treatment (n=2). These bioassays were conducted with 1st and 2-3rd instar larvae and were repeated three times. Bioassays were conducted in 6 well culture plates (Corning, Inc) with 5 ml of plaster of Paris in the bottom of each well. The plaster was saturated with distilled water before the experiment, and was blotted with filter paper to remove standing water immediately before use. The effect of imidacloprid treatment on 1st and 2nd-3rd instar larvae was tested. The control group was provided using standard larval diet. This allowed comparison of sand fly survival between those feeding on feces from sand rats that fed on non treated feed and those fed on standard sand fly diet. First instar larvae were obtained by adding 50 eggs to each well and allowed to hatch and fed on regular diet for 2-3 days. At this time ca. 0.1 g of crushed pellets or control feed was added. Second-3rd instar larvae were obtained by letting 1st instar larvae grow on standard diet in the wells until moulted. At this, time crushed pellets or control feed (0.1 g) was added. […] The wells of the plate were covered with parafilm which was punctured with a needle to allow for ventilation. The wells were kept in a humidified room (26° C./75% RH) inside a covered tube which contained a saturated sponge. The container was placed in an environmental chamber at 28 C, 90% RH, and a photoperiod of 14:10 (L:D) h. […] Alimentation was noted by observation of the presence of frass in the vials and dark material in the guts of the larvae.

## O=C(NC(=O)c1c(F)cccc1F)Nc1ccc(Cl)cc1 [diflubenzuron]
[1]; 480 ppm
  Mean ± SEM survival (days) of P. arg larvae post-exposure: 9.75 ± 0.71 days
  P. argentipes larvae mortality (%): 100%

## O=[N+]([O-])NC1=NCCN1Cc1ccc(Cl)nc1 [imidacloprid]
[2]; three days post oral treatment
  Residue in blood: zero residue
[3]; P=0.1199
  Difference in fecal production between treatment groups: no significant difference
[3]; diets 50, 100, 250 ppm, 7 day treatment
  Health of sand rats on diet: without any apparent health abnormalities
P. papatasi larvae; by day 5, feces from sand rats administered 100 ppm
  Survivorship for 1st instar larvae: < 5%
P. papatasi larvae; by day 5, feces from sand rats administered 250 ppm
  Survivorship for 1st instar larvae: < 5%
P. papatasi larvae; by day 7, feces from sand rats administered 250 ppm
  Survivorship for 2nd/3rd instar larvae: 10%
P. papatasi larvae; by seven days, feces from diets containing 250 ppm
  Larval mortality: 90%
P. papatasi larvae; sand rats fed diets of 100 ppm and 250 ppm
  Larvicidal effect of feces for 1st instar larvae: rapidly and highly larvicidal

## CC1(C)C(C=C(Cl)Cl)C1C(=O)OCc1cccc(Oc2ccccc2)c1 (stereo not shown) [permethrin]
[2]; rodents, oral treatment
  Time within which the majority of the product is excreted: ≤ 48 h
[2]; topical
  Absorption by the skin: not readily absorbed by the skin

## eprinomectin
[1]; 100 ppm
  Mean ± SEM survival (days) of P. arg larvae post-exposure: 12.65 ± 0.70 days
  P. argentipes larvae mortality (%): 100%
[1]; 250 ppm
  Mean ± SEM survival (days) of P. arg larvae post-exposure: 10.70 ± 0.38 days
  P. argentipes larvae mortality (%): 100%

## ivermectin
[1]; 250 ppm
  Mean ± SEM survival (days) of P. arg larvae post-exposure: 7.40 ± 0.11 days
  P. argentipes larvae mortality (%): 100%
[1]; feces of R. rattus fed 0.025% in feed
  Day of observation by which 100% larval mortality was reached: ≤ 8 days
